{
  "source": "patent US12251426B2",
  "about": "(priority 2020, dated 2025)",
  "origin": "cited, not measured here",
  "key": {"[1]": {"test_system": "human coronavirus NL63 (HCoV-NL63)", "conditions": "in vivo study (so in the source)"}, "influenza A virus": {"test_system": "influenza A virus", "conditions": "in vitro"}, "SARS-CoV 3CLpro": {"target": "SARS-CoV 3CLpro (Severe acute respiratory syndrome coronavirus, UniProt P0C6X7)"}, "SARS-CoV-2 PLpro": {"target": "SARS-CoV-2 PLpro (Severe acute respiratory syndrome coronavirus 2, UniProt P0DTD1)"}, "phospholipase A2 (PLA2)": {"test_system": "phospholipase A2 (PLA2)", "conditions": "in vitro"}, "[2]": {"conditions": "normal intake"}, "helicase": {"target": "helicase (Severe acute respiratory syndrome coronavirus 2, UniProt P0DTD1)"}, "3CLpro": {"target": "3CLpro (Severe acute respiratory syndrome coronavirus 2, UniProt P0DTD1)"}, "[3]": {"target": "SARS-CoV-2 S-protein/ACE2 receptor interface (UniProt P0DTC2+Q9BYF1)"}, "S2 subunit of SARS-CoV": {"target": "S2 subunit of SARS-CoV (Severe acute respiratory syndrome coronavirus, UniProt P59594)"}, "SARS-CoV PLpro": {"target": "SARS-CoV PLpro (Severe acute respiratory syndrome coronavirus, UniProt P0C6X7)"}, "SARS-CoV RdRp": {"target": "SARS-CoV RdRp (Severe acute respiratory syndrome coronavirus, UniProt P0C6X7)"}, "[4]": {"target": "SARS-CoV helicase protein (Severe acute respiratory syndrome coronavirus, UniProt P0C6X7)"}, "T lymphocytes": {"test_system": "T lymphocytes", "conditions": "in vitro, exogenous"}, "[5]": {"test_system": "alveolar epithelial lining surface", "conditions": "acute lung injury caused by sepsis in mice"}, "macrophages": {"test_system": "macrophages", "conditions": "in vitro"}},
  "data": [
    {"smiles": "O=C(O)/C=C/c1ccc(O)c(O)c1", "note": "[Caffeic acid, caffeic acid]", "values": [
      {"measurement": "inhibition of HCoV-NL63", "setting": "[1]", "result": "blocking virus attachment"},
      {"measurement": "water solubility", "result": "slightly water-soluble"},
      {"measurement": "inhibitory effect on replication of influenza A virus", "setting": "influenza A virus", "result": "highly inhibitory effect"}
    ]},
    {"smiles": "O=C(O[C@@H]1Cc2c(O)cc(O)cc2O[C@@H]1c1cc(O)c(O)c(O)c1)c1cc(O)c(O)c(O)c1", "note": "[EGCG, epigallocatechin gallate]", "values": [
      {"measurement": "inhibition of SARS-CoV 3CLpro", "setting": "SARS-CoV 3CLpro", "result": "inhibits"},
      {"measurement": "binding affinity to SARS-CoV-2 PLpro", "setting": "SARS-CoV-2 PLpro", "result": "strong binding affinity"},
      {"measurement": "inhibition of PLA2", "setting": "phospholipase A2 (PLA2)", "result": "inhibit"}
    ]},
    {"smiles": "COc1ccc([C@@H]2CC(=O)c3c(O)cc(O[C@@H]4O[C@H](CO[C@@H]5O[C@@H](C)[C@H](O)[C@@H](O)[C@H]5O)[C@@H](O)[C@H](O)[C@H]4O)cc3O2)cc1O", "note": "[Hesperidin, hesperidin]", "values": [
      {"measurement": "signs of toxicity", "setting": "[2]", "result": "No signs of toxicity"},
      {"measurement": "binding affinity to helicase", "setting": "helicase", "result": "high binding affinity"},
      {"measurement": "binding affinity to 3CLpro", "setting": "3CLpro", "result": "high binding affinity"}
    ]},
    {"smiles": "O=c1cc(-c2ccc(O)c(O)c2)oc2cc(O)cc(O)c12", "note": "[Luteolin, luteolin]", "values": [
      {"measurement": "binding affinity to S-protein/ACE2 receptor interface", "setting": "[3]", "result": "high binding affinity"},
      {"measurement": "binding affinity to S2 subunit of SARS-CoV", "setting": "S2 subunit of SARS-CoV", "result": "high binding affinity"}
    ]},
    {"smiles": "O=c1c(O)c(-c2ccc(O)c(O)c2)oc2cc(O)cc(O)c12", "note": "[Quercetin, quercetin]", "values": [
      {"measurement": "inhibition of SARS-CoV 3CLpro", "setting": "SARS-CoV 3CLpro", "result": "inhibits"},
      {"measurement": "binding affinity to S-protein/ACE2 receptor interface", "setting": "[3]", "result": "significant binding affinity"}
    ]},
    {"smiles": "[Zn+2]", "note": "[Zinc ions]", "values": [
      {"measurement": "inhibition of SARS-CoV 3CLpro", "setting": "SARS-CoV 3CLpro", "result": "can inhibit"},
      {"measurement": "inhibition of SARS-CoV PLpro", "setting": "SARS-CoV PLpro", "result": "can also inhibit"},
      {"measurement": "inhibition of SARS-CoV RdRp", "setting": "SARS-CoV RdRp", "result": "direct inhibition"}
    ]},
    {"smiles": "O=c1c(O)c(-c2cc(O)c(O)c(O)c2)oc2cc(O)cc(O)c12", "note": "[myricetin]", "values": [
      {"measurement": "inhibition of SARS-CoV helicase protein", "setting": "[4]", "result": "inhibits"}
    ]},
    {"smiles": "O=C1O[C@H]([C@@H](O)CO)C(O)=C1O", "note": "[vitamin C, ascorbic acid]", "values": [
      {"measurement": "effect on number, proliferation, and function of T lymphocytes", "setting": "T lymphocytes", "result": "increase"},
      {"measurement": "repair of the alveolar epithelial lining surface", "setting": "[5]", "result": "stimulates repair"}
    ]},
    {"smiles": "C=C1CC[C@H](O)C/C1=C/C=C1\\CCC[C@]2(C)[C@@H]([C@H](C)CCCC(C)C)CC[C@@H]12", "note": "[vitamin D, cholecalciferol]", "values": [
      {"measurement": "expression of anti-inflammatory cytokines by macrophages", "setting": "macrophages", "result": "increases"},
      {"measurement": "expression of pro-inflammatory cytokines by macrophages", "setting": "macrophages", "result": "reduces"}
    ]}
  ]
}
